Experimental data published in patent US6809065B2, “Herbicide containing substituted pyrazole derivative as active ingredient” (SDS Biotech K.K., priority 2001, dated 2004).

What was measured:
[1] = system: Chenopodium album; assay: Upland field foliage treatment (Test Example 1); assay type: in vivo; conditions: foliage treatment 14th day after sowing, wettable powder, 1 kg active ingredient per hectare, evaluated 21st day after application
Source text: (§1) In the above evaluation criteria, the term “herbicidal effect” means evaluation to the objective weeds, and a higher index of the evaluation criteria means higher herbicidal effect on the objective weeds. On the other hand, a lower index of the evaluation criteria for the crops means higher safety to the crops. A plastic pot of 130 cm^2 was filled with upland soil. Then, seeds of weeds, namely, Setaria viridis, Digitaria adscendens, Chenopodium album and Stellaria media, and seeds of crops, namely, soybean (Glycine max) and wheat (Triticum aestivum), were sowed and covered with soil of about 1 cm thick. On the 14th day after the sowing, a wettable powder composition was prepared in accordance with Formulation Example 1, diluted with water in such an amount that the amount of the active ingredient became 1 kg per hectare, and then uniformly applied to the plant leaf surfaces. On the 21st day after the application, observation and evaluation were carried out according to the aforesaid criteria.

[2] = system: Digitaria adscendens; assay: Upland field foliage treatment (Test Example 1); assay type: in vivo; conditions: foliage treatment 14th day after sowing, wettable powder, 1 kg active ingredient per hectare, evaluated 21st day after application
Source text: as §1

[3] = system: Setaria viridis; assay: Upland field foliage treatment (Test Example 1); assay type: in vivo; conditions: foliage treatment 14th day after sowing, wettable powder, 1 kg active ingredient per hectare, evaluated 21st day after application
Source text: as §1

[4] = system: Stellaria media; assay: Upland field foliage treatment (Test Example 1); assay type: in vivo; conditions: foliage treatment 14th day after sowing, wettable powder, 1 kg active ingredient per hectare, evaluated 21st day after application
Source text: as §1

[5] = system: soybean (Glycine max); assay: Upland field foliage treatment (Test Example 1), crop; assay type: in vivo; conditions: foliage treatment 14th day after sowing, 1 kg active ingredient per hectare, evaluated 21st day, lower index = higher safety
Source text: as §1

[6] = system: wheat (Triticum aestivum); assay: as above; assay type: in vivo; conditions: foliage treatment 14th day after sowing, 1 kg active ingredient per hectare, evaluated 21st day, lower index = higher safety
Source text: as §1

[7] = system: Chenopodium album; assay: Upland soil treatment (Test Example 2); assay type: in vivo; conditions: soil surface treatment next day after sowing, wettable powder, 1 kg active ingredient per hectare, evaluated 21st day after application
Source text: (§2) In the above evaluation criteria, the term “herbicidal effect” means evaluation to the objective weeds, and a higher index of the evaluation criteria means higher herbicidal effect on the objective weeds. On the other hand, a lower index of the evaluation criteria for the crops means higher safety to the crops. A plastic pot of 130 cm^2 was filled with upland soil. Then, seeds of weeds, namely, Setaria viridis, Digitaria adscendens, Chenopodium album and Stellaria media, and seeds of crops, namely, soybean (Glycine max) and wheat (Triticum aestivum), were sowed and covered with soil of about 1 cm thick. On the next day after the sowing, a wettable powder composition was prepared in accordance with Formulation Example 1, diluted with water in such an amount that the amount of the active ingredient became 1 kg per hectare, and then uniformly applied to the soil surface. On the 21st day after the application, observation and evaluation were carried out according to the aforesaid criteria.

[8] = system: Digitaria adscendens; assay: Upland soil treatment (Test Example 2); assay type: in vivo; conditions: soil surface treatment next day after sowing, wettable powder, 1 kg active ingredient per hectare, evaluated 21st day after application
Source text: as §2

[9] = system: Setaria viridis; assay: Upland soil treatment (Test Example 2); assay type: in vivo; conditions: soil surface treatment next day after sowing, wettable powder, 1 kg active ingredient per hectare, evaluated 21st day after application
Source text: as §2

[10] = system: Stellaria media; assay: Upland soil treatment (Test Example 2); assay type: in vivo; conditions: soil surface treatment next day after sowing, wettable powder, 1 kg active ingredient per hectare, evaluated 21st day after application
Source text: as §2

[11] = system: soybean (Glycine max); assay: Upland soil treatment (Test Example 2), crop; assay type: in vivo; conditions: soil surface treatment next day after sowing, 1 kg active ingredient per hectare, evaluated 21st day, lower index = higher safety
Source text: as §2

[12] = system: wheat (Triticum aestivum); assay: Upland soil treatment (Test Example 2), crop; assay type: in vivo; conditions: soil surface treatment next day after sowing, 1 kg active ingredient per hectare, evaluated 21st day, lower index = higher safety
Source text: as §2

[13] = system: Echinochloa spp.; assay: Paddy field treatment (Test Example 3); assay type: in vivo, Echinochloa crusgalli; conditions: paddy pot, submerged 4 cm, dropped on water surface 10th day after transplantation, 1 kg active ingredient per hectare, evaluated 21st day
Experimental: (§3) In the above evaluation criteria, the term “herbicidal effect” means evaluation to the objective weeds, and a higher index of the evaluation criteria means higher herbicidal effect on the objective weeds. On the other hand, a lower index of the evaluation criteria for the crops means higher safety to the crops. A plastic pot of 130 cm^2 was filled with paddy soil, and soil puddling was carried out to adjust the submerged depth to 4 cm. Then, seeds of Echinochloa crusgalli, Monochoria vaginalis, Ammannia multiflora and Scirpus juncoides were sowed, and rice (Oryza […], variety: Koshihikari) of two-leaf period was transplanted by 2 rice plants of 1 stub per pot at a depth of 3 cm. On the 10th day after the transplantation, a wettable powder composition was prepared in accordance with Formulation Example 1, diluted with water in such an amount that the amount of the active ingredient became 1 kg per hectare, and then dropped to diffuse on the water surface. On the 21st day after the dropping, observation and evaluation were carried out according to the aforesaid criteria.

[14] = system: Ammannia multiflora; assay: Paddy field treatment (Test Example 3); assay type: in vivo; conditions: paddy pot, submerged 4 cm, dropped on water surface 10th day after transplantation, 1 kg active ingredient per hectare, evaluated 21st day
Experimental: as §3

[15] = system: Monochoria vaginalis; assay: Paddy field treatment (Test Example 3); assay type: in vivo; conditions: paddy pot, submerged 4 cm, dropped on water surface 10th day after transplantation, 1 kg active ingredient per hectare, evaluated 21st day
Experimental: as §3

[16] = system: Scirpus juncoides; assay: Paddy field treatment (Test Example 3); assay type: in vivo; conditions: paddy pot, submerged 4 cm, dropped on water surface 10th day after transplantation, 1 kg active ingredient per hectare, evaluated 21st day
Experimental: as §3

[17] = system: rice (Oryza sative, variety: Koshihikari); assay: Paddy field treatment (Test Example 3), crop; assay type: in vivo, Oryza sativa; conditions: transplanted rice two-leaf period, water surface treatment 10th day after transplantation, 1 kg active ingredient per hectare, evaluated 21st day, lower index = higher safety
Experimental: as §3

SMILES	Herbicidal activity Chenopodium album [1]	Herbicidal activity Digitaria adscendens [2]	Herbicidal activity Setaria viridis [3]	Herbicidal activity Stellaria media [4]	Herbicidal activity Glycine max [5]	Herbicidal activity Triticum aestivum [6]	Herbicidal activity Chenopodium album [7]	Herbicidal activity Digitaria adscendens [8]	Herbicidal activity Setaria viridis [9]	Herbicidal activity Stellaria media [10]	Herbicidal activity Glycine max [11]	Herbicidal activity Triticum aestivum [12]	Herbicidal activity Echinochloa spp. [13]	Herbicidal activity Ammannia multiflora [14]	Herbicidal activity Monochoria vaginalis [15]	Herbicidal activity Scirpus juncoides [16]	Herbicidal activity Oryza sativa [17]
COC=C(Cn1ccc(-c2ccccc2)n1)C(=O)OC [Compound 1]	5 (herbicidal effect of not less than 90% by weight)	5 (herbicidal effect of not less than 90% by weight)	5 (herbicidal effect of not less than 90% by weight)	5 (herbicidal effect of not less than 90% by weight)	1 (herbicidal effect of not less than 10% by weight and less than 30% by weight)	1 (herbicidal effect of not less than 10% by weight and less than 30% by weight)	4 (herbicidal effect of not less than 70% by weight and less than 90% by weight)	5 (herbicidal effect of not less than 90% by weight)	4 (herbicidal effect of not less than 70% by weight and less than 90% by weight)	4 (herbicidal effect of not less than 70% by weight and less than 90% by weight)	0 (herbicidal effect of not less than 0% by weight and less than 10% by weight)	0 (herbicidal effect of not less than 0% by weight and less than 10% by weight)	5 (herbicidal effect of not less than 90% by weight)	4 (herbicidal effect of not less than 70% by weight and less than 90% by weight)	5 (herbicidal effect of not less than 90% by weight)	5 (herbicidal effect of not less than 90% by weight)	1 (herbicidal effect of not less than 10% by weight and less than 30% by weight)
COC=C(Cn1nc(-c2ccccc2)cc1C)C(=O)OC [Compound 2]	4 (herbicidal effect of not less than 70% by weight and less than 90% by weight)	4 (herbicidal effect of not less than 70% by weight and less than 90% by weight)	4 (herbicidal effect of not less than 70% by weight and less than 90% by weight)	4 (herbicidal effect of not less than 70% by weight and less than 90% by weight)	0 (herbicidal effect of not less than 0% by weight and less than 10% by weight)	0 (herbicidal effect of not less than 0% by weight and less than 10% by weight)	4 (herbicidal effect of not less than 70% by weight and less than 90% by weight)	4 (herbicidal effect of not less than 70% by weight and less than 90% by weight)	4 (herbicidal effect of not less than 70% by weight and less than 90% by weight)	4 (herbicidal effect of not less than 70% by weight and less than 90% by weight)	0 (herbicidal effect of not less than 0% by weight and less than 10% by weight)	0 (herbicidal effect of not less than 0% by weight and less than 10% by weight)	3 (herbicidal effect of not less than 50% by weight and less than 70% by weight)	3 (herbicidal effect of not less than 50% by weight and less than 70% by weight)	3 (herbicidal effect of not less than 50% by weight and less than 70% by weight)	3 (herbicidal effect of not less than 50% by weight and less than 70% by weight)	0 (herbicidal effect of not less than 0% by weight and less than 10% by weight)
COC=C(Cn1nc(-c2cc(C)ccc2C)cc1C)C(=O)OC [Compound 5]	5 (herbicidal effect of not less than 90% by weight)	4 (herbicidal effect of not less than 70% by weight and less than 90% by weight)	4 (herbicidal effect of not less than 70% by weight and less than 90% by weight)	4 (herbicidal effect of not less than 70% by weight and less than 90% by weight)	0 (herbicidal effect of not less than 0% by weight and less than 10% by weight)	0 (herbicidal effect of not less than 0% by weight and less than 10% by weight)	4 (herbicidal effect of not less than 70% by weight and less than 90% by weight)	5 (herbicidal effect of not less than 90% by weight)	4 (herbicidal effect of not less than 70% by weight and less than 90% by weight)	4 (herbicidal effect of not less than 70% by weight and less than 90% by weight)	0 (herbicidal effect of not less than 0% by weight and less than 10% by weight)	0 (herbicidal effect of not less than 0% by weight and less than 10% by weight)	–	3 (herbicidal effect of not less than 50% by weight and less than 70% by weight)	5 (herbicidal effect of not less than 90% by weight)	3 (herbicidal effect of not less than 50% by weight and less than 70% by weight)	0 (herbicidal effect of not less than 0% by weight and less than 10% by weight)
